# Several values for one entry are separate records, joined by “and”; a condition that tells them apart may be missing. Equal entries are not always repeated.
# Experiments:
# [1] = tested on: irradiated (490 rads) C3H/HeN mice with infected subcutaneous pouch; experiment: Immunocompromised mouse model of contained infection: ceftriaxone treatment, spleen CFU at death and survival; format: in vivo; settings: Ceftriaxone 0.3 mg/mouse daily
# From the text: In order to test therapies intended at controlling systemic inflammatory response rather than the infection, it is desirable to control the infection to avoid problems that can derive from a high bacterial load. To this end we controlled the infection by using antibiotics. In this experiment, a subcutaneous pouch was induced in C3H/HeN animals. […] At Day 6 after induction of the pouches, mice were infected with 4.5×10^6 CFU/mouse. As animals became sick (as detected by a ruffled fur), each animal was assigned to one of two different groups, i.e. a group to be treated with 0.3 mg/mouse of ceftriaxone and a group to stay untreated. […] Once an animal was assigned to the treated group, it received a daily injection of antibiotic until the animal succumbed to death. […] At death, spleens were removed from the animals, homogenized in PBS, and the CFU determined.
# The bacterial counts in the spleens of treated animals are about 3 logs of magnitude lower than in the untreated animals. The conditions employed should therefore be useful for testing therapies to prevent the progression from sepsis to septic shock in the absence of overwhelming bacterial infection.
# [2] = tested on: irradiated C3H/HeN mice infected with E. coli strain Bort; experiment: VEGF receptor antagonists (Compounds I and II): survival, bacterial counts, time of euthanasia; format: in vivo, mouse; settings: for Bacterial counts: blood bacterial count of individual animal bled at 40 hours after infection, 100 mg/Kg injected 16 hours after infection, FD given where no count; for Bacterial counts / Time of Death: 100 mg/kg; for Status: individual animal survival status code (1 or 0, not defined; 0 only at 168); for Time of Death: individual animal, time of death/euthanasia (hours after infection), 100 mg/Kg, ceftriaxone 50 ug/mouse at 40 hours
# Protocol: (§1) Mice were pouched six days and irradiated five days before infection. Eight- to 12-week-old C3H/HeN mice were anesthetized with isofluorane and wiped with alcohol in the area caudal to their ears. Pouches were created at this site by subcutaneous injection of 2-3 ml of air, followed by the subcutaneous injection of 0.2 ml of a 0.5% solution of croton oil in olive oil. Twenty-four hours later, mice were irradiated using a gamma irradiator. Five days after irradiation, animals were infected with E. coli strain Bort by direct injection of the bacterial suspension into the pouches. After infection, animals were treated as described for each individual experiment. Animals were checked daily for signs of pain and distress, including diarrhea, lethargy, ruffled fur, lack of appetite, and poor body condition. Animals were euthanized when they became very lethargic and unable to move when touched. It was previously determined that when mice reach such conditions they will die within 6-8 hours.
# Using the procedure described above, 76 mice were pouched, irradiated (495 rads) and infected (0.2 ml of 0.1 OD 600).
# (II) (see WO 98/13354 and WO 00/132651). At 40 hours after infection, animals were bled and injected with the same solutions to which ceftriaxone was added to yield a solution containing 50 ug/mouse. Animals were injected with the solutions (no ceftriaxone) for 2 more days. Blood was used for BC and plasma. Two aliquots of 20 ul and an extra aliquot were prepared and stored at −80.
# [3] = tested on: irradiated C3H/HeN mice infected with E. coli strain Bort; experiment: Ethyl pyruvate plus ceftriaxone, survival in immunocompromised infected mouse model; format: in vivo; settings: for Bacterial counts / Status / Status.dead / Time death: one animal per row, listed as EP; for Status: 1 = dead, 0 = alive
# Protocol: as §1, with “touched.” for “touched. It was previously determined that when mice reach such conditions they will die within 6-8 hours.”
# Mice were pouched and irradiadiated as described above. The mice were assigned to four different groups: (1) ten mice were untreated (control mice); (2) nineteen mice were treated with 0.1 mg/mouse of ceftriaxone (CEF) once every 24 hours […] (saline control mice); (3) twenty mice were treated with 0.1 mg/mouse ceftriaxone and 35 mg/ml ethyl pyruvate once every 24 hours for four days (EP mice); and (4) ten mice were treated as for group (3) and received an additional injection of 35 mg/ml of EP at 30 and 54 hour timepoints (EP 2x mice).
smiles,measurement,setting,value
"CO/N=C(\C(=O)N[C@@H]1C(=O)N2C(C(=O)O)=C(CSc3nc(=O)c(=O)[nH]n3C)CS[C@H]12)c1csc(N)n1 [Ceftriaxone, ceftriaxone]","CFU/spleen, Average",[1]; average of treated animals,7.01E+05 CFU/spleen
same,CFU/spleen,"[1]; spleens removed at death, single animals",2.60E+04 CFU/spleen and 3.00E+03 CFU/spleen and 8.00E+03 CFU/spleen and 8.00E+05 CFU/spleen (2×) and 1.80E+04 CFU/spleen and 6.00E+02 CFU/spleen and 1.20E+04 CFU/spleen and 2.00E+03 CFU/spleen and 4.00E+04 CFU/spleen and 6.00E+06 CFU/spleen
COc1cc2c(Nc3ccc(Br)cc3F)ncnc2cc1OCC1CCN(C)CC1 [Compound II],Bacterial counts,[2],1.0E+09 and 1.0E+07 and 9.0E+06 and 3.0E+06 and 2.0E+06 (3×) and 5.0E+05 and 3.0E+05 (2×) and 5.0E+04 and 3.0E+04 and 1.6E+04 and 2.0E+03 and 1.0E+02 (2×) and <100 (9×)
same,Status,[2],1 (23×) and 0 (4×)
same,Time of Death,[2],40 (2×) and 46 (4×) and 48 (7×) and 64 (4×) and 160 (3×) and 112 (3×) and 168 (4×)
CC(C)(N)c1ccc(-c2nc(Nc3ccc(CCN4CCOCC4)cc3)ncc2C#N)cc1 [Compound I],Bacterial counts,[2],1.3E+07 and 4.0E+06 and 3.0E+06 and 2.0E+06 and 1.0E+06 and 3.0E+05 (3×) and 2.0E+05 (2×) and 3.0E+04 and 1.7E+03 and 1.0E+03 and 1.0E+02 (5×) and <100 (7×)
same,Status,[2],1 (27×) and 0
same,Time of Death,[2],40 (3×) and 46 (5×) and 48 (4×) and 64 and 88 and 94 and 112 (8×) and 160 and 96 (3×) and 168
CCOC(=O)C(C)=O [ethyl pyruvate],survival relative to nontreated or CEF-treated controls,"[3]; 35 mg/ml ethyl pyruvate with 0.1 mg/mouse ceftriaxone, every 24 hours for four days (EP) or with extra doses at 30 and 54 h (EP 2x)",significant survival advantage
same,Bacterial counts,[3]; Group 3 (EP mice): 0.1 mg/mouse ceftriaxone and 35 mg/ml ethyl pyruvate once every 24 hours for four days,1.0E+04 and 3.0E+04 and 1.2E+05 and 2.0E+05 (3×) and 3.0E+05 (2×) and 1.3E+04 and 2.5E+04 and 3.5E+04 and 6.5E+04 and 7.6E+04 and 8.0E+04 and 1.2E+04 and 2.0E+03 and 1.6E+03 (2×) and 1.6E+04 and 4.0E+04
same,Status,[3]; Group 3 (EP mice),1 (19×) and 0
same,Status.dead,[3]; Group 3 (EP mice),DEAD (19×) and ALIVE
same,Time death,[3]; Group 3 (EP mice),48 (6×) and 54 (8×) and 56 and 78 and 102 and 168 and 174 (2×)
same,Bacterial counts,[3]; Group 4 (EP 2x mice): as group 3 plus additional 35 mg/ml EP at 30 and 54 hour timepoints,2.0E+05 and 5.0E+04 (2×) and 3.0E+04 (2×) and 1.0E+04 and 1.7E+03 and 0.0E+00 and 1.0E+03 and 2.4E+03
same,Status,[3]; Group 4 (EP 2x mice),1 (7×) and 0 (3×)
same,Status.dead,[3]; Group 4 (EP 2x mice),DEAD (7×) and ALIVE (3×)
same,Time death,[3]; Group 4 (EP 2x mice),48 and 54 and 62 and 72 and 96 and 168 (2×) and 174 (3×)

# Reference: US20070083333A1, “Modeling of systemic inflammatory response to infection” (priority 2003, published 2007)
